US20230122249A1, “1H-PYRAZOLO[4,3-d]PYRIMIDINE COMPOUNDS AS TOLL-LIKE RECEPTOR 7 (TLR7) AGONISTS” (BRISTOL-MYERS SQUIBB COMPANY, priority 2020, published 2023)

Legend:
[1] = system: CD69 in human whole blood; assay: Induction of CD69 in human whole blood (hWB); assay type: cell-based; settings: heparinized human whole blood, 17 h, CD69 surface staining; 100% set to 1 uM resiquimod; average where assay repeated
Experimental: The induction of Type I interferon (IFN) MX-1 genes and the B-cell activation marker CD69 are downstream events that occur upon activation of the TLR7 pathway. The following is a human whole blood assay that measures their induction in response to a TLR7 agonist.
Heparinized human whole blood was harvested from human subjects and treated with test TLR7 agonist compounds at 1 mM. The blood was diluted with RPMI 1640 media and Echo was used to predot 10 nL per well giving a final concentration of 1 uM (10 nL in 10 uL of blood). After mixing on a shaker for 30 sec, the plates were covered and placed in a 37° C. chamber for o/n=17 hrs. Fixing/lysis buffer was prepared (5×->1×in H2O, warm at 37° C.; Cat# BD 558049) and kept the perm buffer (on ice) for later use.
For surface markers staining (CD69): prepared surface Abs: 0.045 ul hCD14-FITC (ThermoFisher Cat # MHCD1401)+0.6 ul hCD19-ef450 (ThermoFisher Cat #48-0198-42)+1.5 ul hCD69-PE (cat# BD555531)+0.855 ul FACS buffer. Added 3 ul/well, spin1000 rpm for 1 min and mixed on shaker for 30 sec, put on ice for 30 mins. Stop stimulation after 30 minutes with 70 uL of prewarmed 1×fix/lysis buffer and use Feliex mate to resuspend (15 times, change tips for each plate) and incubate at 37° C. for 10 minutes.
Centrifuge at 2000 rpm for 5 minutes aspirate with HCS plate washer, mix on shaker for 30 sec and then wash with 70 uL in dPBS and pelleted 2 xs (2000 rpm for 5 min) and 50 ul wash in FACS buffer pelleted 1 xs(2000 rpm for 5 min). Mix on shaker for 30 sec. For Intracellular markers staining (MX-1): Add 50 ul of BD Perm buffer III and mix on shaker for 30 sec. Incubate on ice for 30 minutes (in the dark). Wash with 50 uL of FACS buffer 2×(spin @2300 rpm×5 min after perm) followed by mixing on shaker for 30 sec. Resuspended in 20 ul of FACS buffer containing MX1 antibody ( )(4812)-Alexa 647: Novus Biologicals #NBP2-43704AF647) 20 ul FACS bf+0.8 ul hlgG+0.04 ul MX-1. Spin 1000 rpm for 1 min, mix on shaker for 30 se and the samples were incubated at RT in the dark for 45 minutes followed by washing 2×FACS buffer (spin @2300 rpm×5 min after perm). Resuspend 20 ul (35 uL total per well) of FACS buffer and cover with foil and place in 4° C. to read the following day. Plates were read on iQuePlus. The results were loaded into toolset and […] curves are generated in curve master. The y-axis 100% is set to 1 uM of resiquimod.

human TLR7 = target: T1, human TLR7 (Homo sapiens, UniProt Q9NYK1); assay: Human TLR7 agonist activity (hTLR7 reporter) assay in HEK-Blue TLR7 cells, SEAP readout; assay type: cell-based; settings: 18 h treatment, average where assay repeated
T1 construct: host or cells: HEK-Blue TLR7 cells (engineered human embryonic kidney cells)
T1 sequence (Q9NYK1 27-1049): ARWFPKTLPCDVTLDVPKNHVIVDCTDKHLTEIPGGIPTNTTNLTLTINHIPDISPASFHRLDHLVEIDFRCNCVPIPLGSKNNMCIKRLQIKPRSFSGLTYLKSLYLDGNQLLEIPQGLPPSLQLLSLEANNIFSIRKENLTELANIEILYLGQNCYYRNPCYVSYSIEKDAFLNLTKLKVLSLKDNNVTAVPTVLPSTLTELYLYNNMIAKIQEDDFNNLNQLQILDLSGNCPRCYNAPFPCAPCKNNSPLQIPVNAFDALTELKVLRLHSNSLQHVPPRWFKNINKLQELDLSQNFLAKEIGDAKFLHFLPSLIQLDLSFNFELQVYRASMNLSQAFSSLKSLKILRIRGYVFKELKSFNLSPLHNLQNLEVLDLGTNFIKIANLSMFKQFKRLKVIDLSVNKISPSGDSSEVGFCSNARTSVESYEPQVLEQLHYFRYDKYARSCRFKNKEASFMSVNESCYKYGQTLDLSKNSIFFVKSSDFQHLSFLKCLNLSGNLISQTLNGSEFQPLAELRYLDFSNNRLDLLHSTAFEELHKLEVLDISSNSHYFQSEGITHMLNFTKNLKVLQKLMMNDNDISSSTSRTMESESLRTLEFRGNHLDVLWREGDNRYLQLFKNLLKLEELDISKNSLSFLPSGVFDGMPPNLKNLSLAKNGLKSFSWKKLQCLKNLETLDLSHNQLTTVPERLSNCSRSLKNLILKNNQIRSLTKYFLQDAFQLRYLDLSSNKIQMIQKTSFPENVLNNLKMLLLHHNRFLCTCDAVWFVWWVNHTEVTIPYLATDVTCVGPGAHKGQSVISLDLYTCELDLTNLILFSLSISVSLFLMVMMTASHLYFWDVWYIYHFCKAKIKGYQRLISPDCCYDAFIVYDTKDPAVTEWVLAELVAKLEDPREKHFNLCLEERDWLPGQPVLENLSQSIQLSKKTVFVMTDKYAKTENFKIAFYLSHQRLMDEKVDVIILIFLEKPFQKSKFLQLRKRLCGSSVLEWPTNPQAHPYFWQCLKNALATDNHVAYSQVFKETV
Experimental: This procedure describes a method for assaying human TLR7 (hTLR7) agonist activity of the compounds disclosed in this specification.
HEK-Blue™ TLR7 cells were added to each well of a 384-well tissue-culture plate (15,000 cells per well) and incubated 16-18 h at 37° C., 5% CO2. Compounds (100 nl) were dispensed into wells containing the HEK-Blue™ TLR cells and the treated cells were incubated at 37° C., 5% CO2. After 18 h treatment ten microliters of freshly-prepared Quanti-Blue™ reagent (Invivogen) was added to each well, incubated for 30 min (37° C., 5% CO2) and SEAP levels measured using an Envision plate reader (OD=620 nm). The half maximal effective concentration values (EC50; compound concentration which induced a response halfway between the assay baseline and maximum) were calculated.

SMILES | EC50 [1] | EC50 (human TLR7)
COc1cc(CN2CCN(CCO)CC2)ccc1Cn1ncc2nc(N)nc(NCC3CC4(C3)CC(F)(F)C4)c21 [Compound 185] | 117 nM | 482 nM
COc1cc(CN(C)C)ccc1Cn1ncc2nc(N)nc(NCC3CC4(C3)CC(F)(F)C4)c21 [Compound 186] | 783 nM | 950 nM
COc1cc(C(=O)N2C[C@H]3C[C@@H]2CN3C)ccc1Cn1ncc2nc(N)nc(NCC3CC4(C3)CC(F)(F)C4)c21 [Compound 189] | 1000 nM | 780 nM
COc1cc(C(=O)NC2CN(C)C2)ccc1Cn1ncc2nc(N)nc(NCC3CC4(CC4)C3)c21 [Compound 190] | 168 nM | 315 nM
COc1cc(C(=O)N[C@@H]2CCN(C)C2)ccc1Cn1ncc2nc(N)nc(NCC3CC4(CC4)C3)c21 [Compound 193] | 15.2 nM | 48.1 nM
COc1cc(C(=O)NC2CCN(C(C)C)CC2)ccc1Cn1ncc2nc(N)nc(NCC3CC4(CC4)C3)c21 [Compound 194] | 101 nM | 104 nM
COc1cc(C(=O)NC2CC3(C2)CN(C)C3)ccc1Cn1ncc2nc(N)nc(NCC3CC4(CC4)C3)c21 (stereo not shown) [Compound 201] | 206 nM | 842 nM
CCC[C@@H](CCO)Nc1nc(N)nc2cnn(Cc3ccc(C(=O)N4CC5(CN(C)C5)C4)cc3OC)c12 [Compound 206] | 36.3 nM | 93.3 nM
COc1cc(C(=O)NC2CCN(C)CC2)ccc1Cn1nc(C)c2nc(N)nc(NCC3CC4(CC4)C3)c21 [Compound 207] | 93.3 nM | 325 nM
COc1cc(CN2CC3(C2)CN(C(C)C)C3)ccc1Cn1ncc2nc(N)nc(NCc3cc(C)on3)c21 [Compound 213] | 2.3 nM | 53.4 nM
CCC[C@@H](CCO)Nc1nc(N)nc2cnn(Cc3ccc(CN4CC5(C4)CN(C(C)C)C5)cc3OC)c12 [Compound 216] | 1.3 nM | 7.3 nM
CN1C[C@@H]2CN(C(=O)c3ccc(Cn4ncc5nc(N)nc(NCC6CC7(CC7)C6)c54)c(OC(F)F)c3)C[C@@H]2C1 [Compound 218] | 35 nM | 125 nM
CN1C[C@H]2C[C@@H]1CN2C(=O)c1ccc(Cn2ncc3nc(N)nc(NCC4CC5(CC5)C4)c32)c(OC(F)F)c1 [Compound 219] | 37.7 nM | 188 nM
CN1CCC(NC(=O)c2ccc(Cn3ncc4nc(N)nc(NCC5CC6(CC6)C5)c43)c(OC(F)F)c2)CC1 [Compound 220] | 117 nM | 1240 nM

More lines, now with the values ahead:

EC50 [1] | EC50 (human TLR7) | SMILES
156 nM | 365 nM | COc1cc(C(=O)N2C[C@@H]3C[C@H]2CN3)ccc1Cn1ncc2nc(N)nc(NCC3CC4(CC4)C3)c21 [Compound 178]
13.1 nM | 36.5 nM | COc1cc(C(=O)N2C[C@@H]3C[C@H]2CN3C)ccc1Cn1ncc2nc(N)nc(NCC3CC4(CC4)C3)c21 [Compound 179]
363 nM | 728 nM | COc1cc(C(=O)N2CC3(CNC3)C2)ccc1Cn1ncc2nc(N)nc(NCC3CC4(CCC4)C3)c21 [Compound 180]
110 nM | 254 nM | COc1cc(C(=O)N2C[C@@H]3C[C@H]2CN3)ccc1Cn1ncc2nc(N)nc(NCC3CC4(CCC4)C3)c21 [Compound 181]
202 nM | 394 nM | COc1cc(C(=O)N2C[C@H]3CNC[C@H]3C2)ccc1Cn1ncc2nc(N)nc(NCC3CC4(CCC4)C3)c21 [Compound 182]
48.5 nM | 31.5 nM | COc1cc(CN2CCN(CCO)CC2)ccc1Cn1ncc2nc(N)nc(NCC3CC4(CC4)C3)c21 [Compound 183]
110 nM | 67.5 nM | COc1cc(C(=O)N2CCN(CCO)CC2)ccc1Cn1ncc2nc(N)nc(NCC3CC4(CC4)C3)c21 [Compound 184]
420 nM | 2310 nM | COc1cc(C(=O)N2CC3(CN(C)C3)C2)ccc1Cn1ncc2nc(N)nc(NCC3CC4(C3)CC(F)(F)C4)c21 [Compound 187]
493 nM | 810 nM | COc1cc(C(=O)N2C[C@H]3CN(C)C[C@H]3C2)ccc1Cn1ncc2nc(N)nc(NCC3CC4(C3)CC(F)(F)C4)c21 [Compound 188]
21.9 nM | 47.3 nM | COc1cc(C(=O)N[C@H]2CCN(C)C2)ccc1Cn1ncc2nc(N)nc(NCC3CC4(CC4)C3)c21 [Compound 192]
411 nM | 193 nM | COc1cc(C(=O)NC2CCN(C3CC3)CC2)ccc1Cn1ncc2nc(N)nc(NCC3CC4(CC4)C3)c21 [Compound 195]
35.5 nM | 32.6 nM | CCCN1CCC(NC(=O)c2ccc(Cn3ncc4nc(N)nc(NCC5CC6(CC6)C5)c43)c(OC)c2)CC1 [Compound 197]
60.6 nM | 90.3 nM | COc1cc(C(=O)NC2CCN(C)CC2)ccc1Cn1ncc2nc(N)nc(NCC3CC4(CC4)C3)c21 [Compound 198]
130 nM | 124 nM | COc1cc(C(=O)N2CC3(CN(C)C3)C2)ccc1Cn1ncc2nc(N)nc(NCC3CC4(CCC4)C3)c21 [Compound 200]
314 nM | 328 nM | COc1cc(C(=O)NC2CN(C)C2)ccc1Cn1ncc2nc(N)nc(NCC3CC4(CCC4)C3)c21 [Compound 205]
45.8 nM | 119 nM | COc1cc(C(=O)N2C[C@H]3C[C@@H]2CN3C)ccc1Cn1nc(C)c2nc(N)nc(NCC3CC4(CC4)C3)c21 [Compound 208]
195 nM | 242 nM | CCC[C@@H](CCO)Nc1nc(N)nc2cnn(Cc3ccc(C(=O)N4CC5(CNC5)C4)cc3OC)c12 [Compound 209]
33.7 nM | 640 nM | COc1cc(CN2CC3(CN(C)C3)C2)ccc1Cn1ncc2nc(N)nc(NCc3cc(C)on3)c21 [Compound 211]
10.9 nM | 67.6 nM | COc1cc(C(=O)N2CC3(CN(C)C3)C2)ccc1Cn1ncc2nc(N)nc(NCc3cc(C)on3)c21 [Compound 214]
104 nM | 372 nM | CCC[C@@H](CCO)Nc1nc(N)nc2cnn(Cc3ccc(CN4CC5(CN(C)C5)C4)cc3OC)c12 [Compound 215]
10.8 nM | 115 nM | COc1cc(C(=O)N2C[C@H]3CN(C)C[C@H]3C2)ccc1Cn1nc(C)c2nc(N)nc(NCC3CC4(CC4)C3)c21 [Compound 217]
